{"source": "paper PMC12281424", "about": "“A Rac-specific competitive inhibitor of guanine nucleotide binding reduces metastasis in triple-negative breast cancer” (Cell Reports Medicine, 2025)", "key": {"Dopamine D2S": {"target": "Dopamine D2S (Homo sapiens, UniProt P14416)", "assay": "Safety screen", "type": "binding", "experimental": "(§1) Blood cell counts, kinase profiler, safety screen, bacterial cytotoxicity, Ames, micronucleus assays were performed by the company Eurofins (France)."}, "Histamine H2": {"target": "Histamine H2 (Homo sapiens, UniProt P25021)", "assay": "Safety screen", "type": "binding", "experimental": "(§2) Blood cell counts, kinase profiler, safety screen, bacterial cytotoxicity, Ames, micronucleus assays were performed by the company Eurofins (France). The kinase profiler was performed by the company Eurofins (Discovery, Panlab and Cerep)."}, "[1]": {"target": "Serotonin (5-Hydroxytryptamine) 5-HT2B (Homo sapiens, UniProt P41595)", "assay": "Safety screen", "type": "binding", "experimental": "as §1"}, "Abl(h)": {"target": "Abl(h) (Homo sapiens, UniProt P00519)", "assay": "Kinase Profiler", "type": "biochemical", "experimental": "(§3) The kinase profiler was performed by the company Eurofins (Discovery, Panlab and Cerep)."}, "Abl (H396P) (h)": {"target": "Abl (H396P) (h) (Homo sapiens, UniProt P00519, H396P)", "assay": "Kinase Profiler", "type": "biochemical", "experimental": "as §3"}, "Aurora-C(h)": {"target": "Aurora-C(h) (Homo sapiens, UniProt Q9UQB9)", "assay": "Kinase Profiler", "type": "biochemical", "experimental": "as §2"}, "BRK(h)": {"target": "BRK(h) (Homo sapiens, UniProt Q13882)", "assay": "Kinase Profiler", "type": "biochemical", "experimental": "as §2"}, "CDK2/cyclinE(h)": {"target": "CDK2/cyclinE(h) (Homo sapiens, UniProt P24941)", "assay": "Kinase Profiler", "type": "biochemical", "experimental": "as §2"}, "CDK4/cyclinD3(h)": {"target": "CDK4/cyclinD3(h) (Homo sapiens, UniProt P11802)", "sequence (P11802 whole entry)": "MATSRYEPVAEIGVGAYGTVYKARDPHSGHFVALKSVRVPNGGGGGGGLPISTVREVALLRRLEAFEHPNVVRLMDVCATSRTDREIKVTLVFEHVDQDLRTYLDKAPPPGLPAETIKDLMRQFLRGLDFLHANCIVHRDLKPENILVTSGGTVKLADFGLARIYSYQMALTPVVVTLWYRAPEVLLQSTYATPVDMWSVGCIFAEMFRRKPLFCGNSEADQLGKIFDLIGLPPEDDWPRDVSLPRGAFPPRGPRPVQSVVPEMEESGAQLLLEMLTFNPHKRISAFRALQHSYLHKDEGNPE", "sequence (P30281 whole entry partner)": "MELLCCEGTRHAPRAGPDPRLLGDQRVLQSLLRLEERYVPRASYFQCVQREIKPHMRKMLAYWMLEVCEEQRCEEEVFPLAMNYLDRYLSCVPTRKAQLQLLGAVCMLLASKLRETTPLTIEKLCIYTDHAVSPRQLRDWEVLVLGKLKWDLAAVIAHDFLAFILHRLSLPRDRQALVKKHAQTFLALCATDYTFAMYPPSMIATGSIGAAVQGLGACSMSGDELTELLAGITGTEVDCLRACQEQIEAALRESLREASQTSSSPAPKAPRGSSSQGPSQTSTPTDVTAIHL", "assay": "Kinase Profiler", "type": "biochemical", "experimental": "as §2"}, "ChaK1(h)": {"target": "ChaK1(h) (Homo sapiens, UniProt Q96QT4)", "sequence (Q96QT4 whole entry)": "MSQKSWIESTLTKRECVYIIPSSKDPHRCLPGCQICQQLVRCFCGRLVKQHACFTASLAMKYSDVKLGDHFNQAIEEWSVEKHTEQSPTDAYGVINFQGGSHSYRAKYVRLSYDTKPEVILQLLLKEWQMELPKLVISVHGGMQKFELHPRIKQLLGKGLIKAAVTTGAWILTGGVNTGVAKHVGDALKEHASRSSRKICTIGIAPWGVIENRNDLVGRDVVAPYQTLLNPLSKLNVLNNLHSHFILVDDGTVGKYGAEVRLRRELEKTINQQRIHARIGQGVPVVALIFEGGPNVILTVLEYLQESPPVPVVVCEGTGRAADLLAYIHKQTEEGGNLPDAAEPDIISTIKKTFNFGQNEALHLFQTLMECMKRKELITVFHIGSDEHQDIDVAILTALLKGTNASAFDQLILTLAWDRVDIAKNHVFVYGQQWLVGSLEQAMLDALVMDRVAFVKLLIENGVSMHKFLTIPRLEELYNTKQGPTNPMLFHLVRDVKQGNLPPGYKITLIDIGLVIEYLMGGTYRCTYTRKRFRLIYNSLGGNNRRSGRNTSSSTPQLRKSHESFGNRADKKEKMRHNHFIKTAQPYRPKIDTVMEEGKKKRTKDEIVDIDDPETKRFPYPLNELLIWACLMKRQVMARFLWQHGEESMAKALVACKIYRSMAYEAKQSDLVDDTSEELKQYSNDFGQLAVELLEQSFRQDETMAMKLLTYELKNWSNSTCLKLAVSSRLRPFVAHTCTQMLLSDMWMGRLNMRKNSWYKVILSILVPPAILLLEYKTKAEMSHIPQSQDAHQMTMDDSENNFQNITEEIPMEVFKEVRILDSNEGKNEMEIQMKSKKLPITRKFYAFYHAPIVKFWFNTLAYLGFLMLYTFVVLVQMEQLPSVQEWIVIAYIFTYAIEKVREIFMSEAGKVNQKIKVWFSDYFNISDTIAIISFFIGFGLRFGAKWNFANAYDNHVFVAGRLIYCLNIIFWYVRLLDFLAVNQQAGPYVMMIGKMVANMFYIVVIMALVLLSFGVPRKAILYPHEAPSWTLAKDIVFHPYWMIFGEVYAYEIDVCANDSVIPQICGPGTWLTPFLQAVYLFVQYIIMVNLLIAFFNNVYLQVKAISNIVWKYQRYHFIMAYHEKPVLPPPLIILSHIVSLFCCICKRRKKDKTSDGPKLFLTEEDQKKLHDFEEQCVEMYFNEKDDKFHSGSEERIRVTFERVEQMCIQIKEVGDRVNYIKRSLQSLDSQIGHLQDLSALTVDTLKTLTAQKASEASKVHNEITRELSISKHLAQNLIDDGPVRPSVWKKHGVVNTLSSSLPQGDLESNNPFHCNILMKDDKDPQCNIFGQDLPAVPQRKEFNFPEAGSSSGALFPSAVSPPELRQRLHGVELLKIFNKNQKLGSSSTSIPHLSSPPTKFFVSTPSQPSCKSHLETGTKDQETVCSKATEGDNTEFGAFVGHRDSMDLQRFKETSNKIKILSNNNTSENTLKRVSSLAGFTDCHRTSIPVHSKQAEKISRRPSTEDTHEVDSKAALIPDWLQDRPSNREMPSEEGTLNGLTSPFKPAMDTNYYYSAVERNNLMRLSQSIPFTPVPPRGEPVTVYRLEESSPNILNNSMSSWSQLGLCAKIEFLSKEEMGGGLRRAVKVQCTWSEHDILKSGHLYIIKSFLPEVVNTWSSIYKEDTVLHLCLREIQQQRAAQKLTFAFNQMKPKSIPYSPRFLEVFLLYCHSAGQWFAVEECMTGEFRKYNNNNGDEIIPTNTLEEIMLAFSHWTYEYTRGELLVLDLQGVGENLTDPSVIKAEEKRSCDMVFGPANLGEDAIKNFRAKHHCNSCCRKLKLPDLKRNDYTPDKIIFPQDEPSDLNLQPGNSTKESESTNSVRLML", "assay": "Kinase Profiler", "type": "biochemical", "experimental": "as §3"}, "CHK2(I157T)(h)": {"target": "CHK2(I157T)(h) (Homo sapiens, UniProt O96017, I157T)", "assay": "Kinase Profiler", "type": "biochemical", "experimental": "as §3"}, "CK1γ1(h)": {"target": "CK1γ1(h) (Homo sapiens, UniProt Q9HCP0)", "assay": "Kinase Profiler", "type": "biochemical", "experimental": "as §2"}, "CK1δ(h)": {"target": "CK1δ(h) (Homo sapiens, UniProt P48730)", "assay": "Kinase Profiler", "type": "biochemical", "experimental": "as §3"}, "DRAK2(h)": {"target": "DRAK2(h) (Homo sapiens, UniProt O94768)", "assay": "Kinase Profiler", "type": "biochemical", "experimental": "as §2"}, "EGFR(T790M)(h)": {"target": "EGFR(T790M)(h) (Homo sapiens, UniProt P00533, T790M)", "assay": "Kinase Profiler", "type": "biochemical", "experimental": "as §3"}, "EphA4(h)": {"target": "EphA4(h) (Homo sapiens, UniProt P54764)", "assay": "Kinase Profiler", "type": "biochemical", "experimental": "as §2"}, "GRK3(h)": {"target": "GRK3(h) (Homo sapiens, UniProt P35626)", "assay": "Kinase Profiler", "type": "biochemical", "experimental": "as §2"}, "GRK7(h)": {"target": "GRK7(h) (Homo sapiens, UniProt Q8WTQ7)", "assay": "Kinase Profiler", "type": "biochemical", "experimental": "as §2"}, "HRI(h)": {"target": "HRI(h) (Homo sapiens, UniProt Q9BQI3)", "assay": "Kinase Profiler", "type": "biochemical", "experimental": "as §3"}, "ICK(h)": {"target": "ICK(h) (Homo sapiens, UniProt Q9UPZ9)", "assay": "Kinase Profiler", "type": "biochemical", "experimental": "as §3"}, "IGF-1R(h), activated": {"target": "IGF-1R(h), activated (Homo sapiens, UniProt P08069)", "sequence (P08069 31-1367)": "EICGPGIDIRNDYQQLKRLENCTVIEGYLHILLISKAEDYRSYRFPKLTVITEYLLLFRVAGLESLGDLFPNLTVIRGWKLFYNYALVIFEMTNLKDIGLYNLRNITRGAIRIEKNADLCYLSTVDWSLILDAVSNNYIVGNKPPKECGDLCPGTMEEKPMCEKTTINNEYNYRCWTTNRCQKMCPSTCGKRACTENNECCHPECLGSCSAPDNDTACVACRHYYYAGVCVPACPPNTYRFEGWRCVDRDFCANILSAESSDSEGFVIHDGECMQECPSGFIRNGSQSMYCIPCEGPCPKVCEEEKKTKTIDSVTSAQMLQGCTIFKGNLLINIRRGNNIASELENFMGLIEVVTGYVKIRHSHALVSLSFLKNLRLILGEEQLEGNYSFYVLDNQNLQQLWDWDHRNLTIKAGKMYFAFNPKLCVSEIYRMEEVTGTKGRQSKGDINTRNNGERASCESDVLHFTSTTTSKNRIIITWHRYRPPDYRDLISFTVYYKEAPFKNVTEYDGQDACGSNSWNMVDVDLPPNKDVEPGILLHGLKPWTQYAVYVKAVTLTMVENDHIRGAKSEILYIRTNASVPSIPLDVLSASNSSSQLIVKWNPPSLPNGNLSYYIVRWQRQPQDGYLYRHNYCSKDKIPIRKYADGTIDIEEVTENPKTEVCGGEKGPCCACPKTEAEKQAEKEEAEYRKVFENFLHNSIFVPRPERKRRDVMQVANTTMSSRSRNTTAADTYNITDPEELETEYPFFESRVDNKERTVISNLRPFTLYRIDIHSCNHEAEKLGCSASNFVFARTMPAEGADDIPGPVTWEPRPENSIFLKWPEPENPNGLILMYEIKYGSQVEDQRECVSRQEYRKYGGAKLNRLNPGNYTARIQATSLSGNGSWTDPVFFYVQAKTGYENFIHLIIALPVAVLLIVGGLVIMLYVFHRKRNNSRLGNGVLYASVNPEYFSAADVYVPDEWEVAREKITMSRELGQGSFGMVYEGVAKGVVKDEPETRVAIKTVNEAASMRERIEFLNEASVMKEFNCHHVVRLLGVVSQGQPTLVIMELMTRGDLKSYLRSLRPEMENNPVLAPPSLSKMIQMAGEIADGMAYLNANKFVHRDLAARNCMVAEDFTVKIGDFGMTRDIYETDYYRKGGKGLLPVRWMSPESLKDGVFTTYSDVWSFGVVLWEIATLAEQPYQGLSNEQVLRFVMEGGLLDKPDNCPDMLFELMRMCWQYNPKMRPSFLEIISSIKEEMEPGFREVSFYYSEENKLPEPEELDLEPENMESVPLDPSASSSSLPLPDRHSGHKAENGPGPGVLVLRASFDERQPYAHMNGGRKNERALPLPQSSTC", "assay": "Kinase Profiler", "type": "biochemical", "experimental": "as §2"}, "JNK2α2(h)": {"target": "JNK2α2(h) (Homo sapiens, UniProt P45984)", "assay": "Kinase Profiler", "type": "biochemical", "experimental": "as §3"}, "Met(h)": {"target": "Met(h) (Homo sapiens, UniProt P08581)", "assay": "Kinase Profiler", "type": "biochemical", "experimental": "as §3"}, "Met(D1246H)(h)": {"target": "Met(D1246H)(h) (Homo sapiens, UniProt P08581, D1228H)", "assay": "Kinase Profiler", "type": "biochemical", "experimental": "as §3"}, "MLK3(h)": {"target": "MLK3(h) (Homo sapiens, UniProt Q16584)", "assay": "Kinase Profiler", "type": "biochemical", "experimental": "as §2"}, "MLK4(h)": {"target": "MLK4(h) (Homo sapiens, UniProt Q5TCX8)", "assay": "Kinase Profiler", "type": "biochemical", "experimental": "as §2"}, "MRCKα(h)": {"target": "MRCKα(h) (Homo sapiens, UniProt Q5VT25)", "assay": "Kinase Profiler", "type": "biochemical", "experimental": "as §3"}, "MRCKγ(h)": {"target": "MRCKγ(h) (Homo sapiens, UniProt Q6DT37)", "assay": "Kinase Profiler", "type": "biochemical", "experimental": "as §3"}, "MSK2(h)": {"target": "MSK2(h) (Homo sapiens, UniProt O75676)", "assay": "Kinase Profiler", "type": "biochemical", "experimental": "as §2"}, "MSSK1(h)": {"target": "MSSK1(h) (Homo sapiens, UniProt Q9UPE1)", "sequence (Q9UPE1 whole entry)": "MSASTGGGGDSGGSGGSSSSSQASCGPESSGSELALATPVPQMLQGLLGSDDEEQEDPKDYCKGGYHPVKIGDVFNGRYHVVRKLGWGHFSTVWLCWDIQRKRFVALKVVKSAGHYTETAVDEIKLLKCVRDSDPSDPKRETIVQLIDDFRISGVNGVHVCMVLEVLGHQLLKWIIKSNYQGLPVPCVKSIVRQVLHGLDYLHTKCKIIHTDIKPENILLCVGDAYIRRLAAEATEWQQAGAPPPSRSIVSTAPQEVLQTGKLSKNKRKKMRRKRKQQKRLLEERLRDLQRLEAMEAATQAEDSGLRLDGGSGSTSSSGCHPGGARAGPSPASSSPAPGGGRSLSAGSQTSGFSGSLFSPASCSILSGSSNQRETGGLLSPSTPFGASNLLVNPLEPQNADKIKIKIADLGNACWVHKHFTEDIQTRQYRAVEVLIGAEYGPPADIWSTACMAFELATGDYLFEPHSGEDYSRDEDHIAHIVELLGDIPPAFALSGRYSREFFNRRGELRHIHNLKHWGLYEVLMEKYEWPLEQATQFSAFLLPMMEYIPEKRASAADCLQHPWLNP", "assay": "Kinase Profiler", "type": "biochemical", "experimental": "as §2"}, "MYLK2(h)": {"target": "MYLK2(h) (Homo sapiens, UniProt Q9H1R3)", "assay": "Kinase Profiler", "type": "biochemical", "experimental": "as §3"}, "PEK(h)": {"target": "PEK(h) (Homo sapiens, UniProt Q9NZJ5)", "assay": "Kinase Profiler", "type": "biochemical", "experimental": "as §3"}, "PKAcβ(h)": {"target": "PKAcβ(h) (Homo sapiens, UniProt P22694)", "assay": "Kinase Profiler", "type": "biochemical", "experimental": "as §2"}, "PRAK(h)": {"target": "PRAK(h) (Homo sapiens, UniProt Q8IW41)", "sequence (Q8IW41 whole entry)": "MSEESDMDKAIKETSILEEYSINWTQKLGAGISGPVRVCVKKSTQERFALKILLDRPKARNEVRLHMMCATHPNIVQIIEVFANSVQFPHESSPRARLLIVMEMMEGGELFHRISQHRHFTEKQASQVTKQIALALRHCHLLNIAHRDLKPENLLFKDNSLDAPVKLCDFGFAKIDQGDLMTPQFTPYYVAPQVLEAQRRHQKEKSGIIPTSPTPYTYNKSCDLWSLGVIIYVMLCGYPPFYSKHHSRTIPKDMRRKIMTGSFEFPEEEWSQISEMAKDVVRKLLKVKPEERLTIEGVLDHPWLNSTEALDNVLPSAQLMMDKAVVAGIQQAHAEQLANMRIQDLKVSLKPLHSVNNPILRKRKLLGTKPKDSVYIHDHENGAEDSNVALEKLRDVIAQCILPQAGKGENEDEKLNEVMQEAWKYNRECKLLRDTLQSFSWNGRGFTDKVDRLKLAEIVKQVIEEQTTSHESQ", "assay": "Kinase Profiler", "type": "biochemical", "experimental": "as §2"}, "SGK(h)": {"target": "SGK(h) (Homo sapiens, UniProt O00141)", "assay": "Kinase Profiler", "type": "biochemical", "experimental": "as §3"}, "Src(T341M)(h)": {"target": "Src(T341M)(h) (Homo sapiens, UniProt P12931, T341M)", "assay": "Kinase Profiler", "type": "biochemical", "experimental": "as §3"}, "TLK1(h)": {"target": "TLK1(h) (Homo sapiens, UniProt Q9UKI8)", "assay": "Kinase Profiler", "type": "biochemical", "experimental": "as §3"}, "TrkA(h)": {"target": "TrkA(h) (Homo sapiens, UniProt P04629)", "assay": "Kinase Profiler", "type": "biochemical", "experimental": "as §3"}, "WNK1(h)": {"target": "WNK1(h) (Homo sapiens, UniProt Q9H4A3)", "assay": "Kinase Profiler", "type": "biochemical", "experimental": "as §3"}, "Yes(h)": {"target": "Yes(h) (Homo sapiens, UniProt P07947)", "assay": "Kinase Profiler", "type": "biochemical", "experimental": "as §3"}, "ZAP-70(h)": {"target": "ZAP-70(h) (Homo sapiens, UniProt P43403)", "assay": "Kinase Profiler", "type": "biochemical", "experimental": "as §3"}}, "data": [{"smiles": "COc1ccc(OC)c(NS(=O)(=O)c2ccc(NC(=O)CCSc3ccc(C)cc3)cc2)c1", "note": "[Compound A41]", "values": [{"measurement": "% inh.", "setting": "Dopamine D2S", "value": 35, "unit": "%"}, {"measurement": "% inh.", "setting": "Histamine H2", "value": -14, "unit": "%"}, {"measurement": "% inh.", "setting": "[1]", "value": 90, "unit": "%"}, {"measurement": "Activity(%)", "setting": "Abl(h)", "value": 90, "unit": "%"}, {"measurement": "Activity(%)", "setting": "Abl (H396P) (h)", "value": 92, "unit": "%"}, {"measurement": "Activity(%)", "setting": "Aurora-C(h)", "value": 100, "unit": "%"}, {"measurement": "Activity(%)", "setting": "BRK(h)", "value": 107, "unit": "%"}, {"measurement": "Activity(%)", "setting": "CDK2/cyclinE(h)", "value": 100, "unit": "%"}, {"measurement": "Activity(%)", "setting": "CDK4/cyclinD3(h)", "value": 96, "unit": "%"}, {"measurement": "Activity(%)", "setting": "ChaK1(h)", "value": 104, "unit": "%"}, {"measurement": "Activity(%)", "setting": "CHK2(I157T)(h)", "value": 112, "unit": "%"}, {"measurement": "Activity(%)", "setting": "CK1γ1(h)", "value": 106, "unit": "%"}, {"measurement": "Activity(%)", "setting": "CK1δ(h)", "value": 96, "unit": "%"}, {"measurement": "Activity(%)", "setting": "DRAK2(h)", "value": 90, "unit": "%"}, {"measurement": "Activity(%)", "setting": "EGFR(T790M)(h)", "value": 113, "unit": "%"}, {"measurement": "Activity(%)", "setting": "EphA4(h)", "value": 111, "unit": "%"}, {"measurement": "Activity(%)", "setting": "GRK3(h)", "value": 106, "unit": "%"}, {"measurement": "Activity(%)", "setting": "GRK7(h)", "value": 100, "unit": "%"}, {"measurement": "Activity(%)", "setting": "HRI(h)", "value": 98, "unit": "%"}, {"measurement": "Activity(%)", "setting": "ICK(h)", "value": 77, "unit": "%"}, {"measurement": "Activity(%)", "setting": "IGF-1R(h), activated", "value": 108, "unit": "%"}, {"measurement": "Activity(%)", "setting": "JNK2α2(h)", "value": 101, "unit": "%"}, {"measurement": "Activity(%)", "setting": "Met(h)", "value": 88, "unit": "%"}, {"measurement": "Activity(%)", "setting": "Met(D1246H)(h)", "value": 115, "unit": "%"}, {"measurement": "Activity(%)", "setting": "MLK3(h)", "value": 115, "unit": "%"}, {"measurement": "Activity(%)", "setting": "MLK4(h)", "value": 104, "unit": "%"}, {"measurement": "Activity(%)", "setting": "MRCKα(h)", "value": 109, "unit": "%"}, {"measurement": "Activity(%)", "setting": "MRCKγ(h)", "value": 97, "unit": "%"}, {"measurement": "Activity(%)", "setting": "MSK2(h)", "value": 105, "unit": "%"}, {"measurement": "Activity(%)", "setting": "MSSK1(h)", "value": 125, "unit": "%"}, {"measurement": "Activity(%)", "setting": "MYLK2(h)", "value": 103, "unit": "%"}, {"measurement": "Activity(%)", "setting": "PEK(h)", "value": 102, "unit": "%"}, {"measurement": "Activity(%)", "setting": "PKAcβ(h)", "value": 116, "unit": "%"}, {"measurement": "Activity(%)", "setting": "PRAK(h)", "value": 88, "unit": "%"}, {"measurement": "Activity(%)", "setting": "SGK(h)", "value": 116, "unit": "%"}, {"measurement": "Activity(%)", "setting": "Src(T341M)(h)", "value": 89, "unit": "%"}, {"measurement": "Activity(%)", "setting": "TLK1(h)", "value": 102, "unit": "%"}, {"measurement": "Activity(%)", "setting": "TrkA(h)", "value": 99, "unit": "%"}, {"measurement": "Activity(%)", "setting": "WNK1(h)", "value": 96, "unit": "%"}, {"measurement": "Activity(%)", "setting": "Yes(h)", "value": 110, "unit": "%"}, {"measurement": "Activity(%)", "setting": "ZAP-70(h)", "value": 108, "unit": "%"}]}]}
